Data reported in the supplement of paper PMC10307832.

Assays:
Experiment in all cases: relative viability (nuclei count vs DMSO), 5 days (fraction); higher = more cells survive
[1] = compound: CC(C)(C)c1cc(NC(=O)Nc2ccc(-c3cn4c(n3)sc3cc(OCCN5CCOCC5)ccc34)cc2)no1 [Quizartinib] + N=C(N)NC(=N)NCCc1ccccc1 [Phenformin] (partner 250 µM)
Procedure, shortened: (§1)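 Relative viability equals treated-well nuclei counts divided by vehicle-well nuclei counts. Counts came from 4× images of lung cancer cell lines grown in 1536-well plates for 5 days after pin-tool dosing on the day after seeding. Dosing used one drug alone or a fixed anchor-drug dose plus five library-drug doses (not always all listed) in √10 steps, and values are medians of duplicate plates.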

[2] = compound: COCC[n+]1c2c(n(Cc3cnccn3)c1C)C(=O)c1ccccc1C2=O [YM155] + CC(=O)Nc1cccc(-n2c(=O)n(C3CC3)c(=O)c3c(Nc4ccc(I)cc4F)n(C)c(=O)c(C)c32)c1 [Trametinib] (partner 0.02 µM)
Procedure, shortened: as §1

[3] = compound: COCC[n+]1c2c(n(Cc3cnccn3)c1C)C(=O)c1ccccc1C2=O [YM155] + CS(=O)(=O)N1CCN(Cc2cc3nc(-c4cccc5[nH]ncc45)nc(N4CCOCC4)c3s2)CC1 [Pictilisib] (partner 1 µM)
Procedure, shortened: as §1

[4] = compound: COCC[n+]1c2c(n(Cc3cnccn3)c1C)C(=O)c1ccccc1C2=O [YM155] + O=C(CCCCCCC(=O)Nc1ccccc1)NO [Vorinostat] (partner 1 µM)
Procedure, shortened: as §1

Cell Line	relative viability ([1]; first compound 0.001 µM)	relative viability ([1]; first compound 0.003162 µM)	relative viability ([1]; first compound 0.01 µM)	relative viability ([1]; first compound 0.03162 µM)	relative viability ([1]; first compound 0.1 µM)	relative viability ([2]; first compound 0.002 µM)	relative viability ([2]; first compound 0.006325 µM)	relative viability ([2]; first compound 0.02 µM)	relative viability ([2]; first compound 0.06325 µM)	relative viability ([3]; first compound 0.002 µM)	relative viability ([3]; first compound 0.006325 µM)	relative viability ([3]; first compound 0.02 µM)	relative viability ([3]; first compound 0.06325 µM)	relative viability ([4]; first compound 0.002 µM)	relative viability ([4]; first compound 0.006325 µM)	relative viability ([4]; first compound 0.02 µM)	relative viability ([4]; first compound 0.06325 µM)
201T	0.472	0.426	0.476	0.408	0.438	0.701	0.72	0.702	0.761	0.703	0.677	0.672	0.707	0.931	0.96	0.982	0.961
A549	0.166	0.155	0.201	0.117	0.162					0.511	0.454	0.378	0.0793				
A-427		0.411	0.327	0.256	0.189	0.739	0.796	0.757	0.526	0.592	0.736	0.802	0.705	0.812	0.849	0.838	0.629
ABC-1	0.237	0.322	0.227	0.261	0.18					0.637	0.594	0.341	0.197		1.03	0.373	0.303
BEN	0.271	0.279	0.272	0.243	0.26	0.984	0.864	0.951	1.2	0.53	0.644	0.627	0.578	0.516	0.511	0.619	0.679
CAL-12T	0.587	0.533	0.66	0.435	0.39	0.281	0.337	0.346	0.333		0.566	0.557	0.392	0.624	0.723	0.623	0.412
COR-L23	0.419	0.389	0.476	0.37	0.322	0.629	0.577	0.566	0.192	0.692	0.636	0.408	0.175	0.434	0.501	0.274	0.125
COR-L 105	0.449	0.495	0.471	0.406	0.426	0.433	0.449	0.484	0.456	0.332	0.493	0.447	0.404	0.77	0.875	0.905	0.541
Calu-6										0.879	0.605	0.169	0.13				
ChaGo-K-1	0.516	0.494	0.455	0.443	0.421	0.832	0.929	0.865	0.913	0.671	0.65	0.63	0.718	0.772	0.744	0.787	0.747
EBC-1										0.436	0.345	0.459	0.339				
EKVX	0.21	0.24	0.238	0.244	0.25	0.394	0.369	0.376	0.249	0.422	0.497	0.439	0.339	0.767	0.793	0.671	0.725
EMC-BAC-2	0.446	0.493	0.552		0.525	0.924	0.96	0.968	0.429	0.545	0.533	0.556	0.484	0.428	0.452	0.606	0.256
EPLC-272H	0.215	0.342	0.427	0.3	0.207	0.294	0.27	0.335	0.302	0.307	0.268	0.286	0.328	0.443	0.384	0.357	0.55
H3255	0.38	0.31	0.383	0.346	0.354	0.583	0.666	0.632	0.542	0.483	0.5	0.477	0.424	0.729	0.78	0.776	0.671
HARA		0.453	0.489	0.445	0.386		0.996	0.629	0.676	0.371	0.397	0.533	0.461	0.578	0.462	0.547	0.606
HCC-15		0.461	0.396		0.436	0.331	0.389	0.283	0.423	0.612	0.687	0.723	0.614	0.851	0.836	0.872	0.881
HCC-44	0.203	0.323		0.169	0.261	1.05	1.08	1.08	1.15	0.565	0.469	0.674	0.726	1.01	1.11	1.12	1.1
HCC-78	0.687	0.832	0.707	0.574	0.73	0.698	0.756	0.785	0.879	0.206	0.225	0.2	0.276	0.469	0.458	0.429	0.472
HCC-366	0.615	0.549	0.577	0.601	0.547	0.353	0.421	0.371	0.353	0.376	0.124	0.125	0.134	0.321	0.393	0.469	0.279
HCC-827	0.372	0.385	0.44	0.402	0.404	0.528	0.531	0.605	0.628	1	0.763	1	1.09	0.875	0.961	0.835	0.835
HOP-62	0.624	0.625	0.84	0.662	0.666	0.389	0.389	0.419	0.424	0.79	0.63	0.818	0.749	0.516	0.595	0.727	0.577
IA-LM										0.312	0.266	0.367	0.141	0.863	0.932	0.942	0.97

Cell Line	relative viability ([1]; first compound 0.001 µM)	relative viability ([1]; first compound 0.003162 µM)	relative viability ([1]; first compound 0.01 µM)	relative viability ([1]; first compound 0.03162 µM)	relative viability ([1]; first compound 0.1 µM)	relative viability ([2]; first compound 0.002 µM)	relative viability ([2]; first compound 0.006325 µM)	relative viability ([2]; first compound 0.02 µM)	relative viability ([2]; first compound 0.06325 µM)	relative viability ([3]; first compound 0.002 µM)	relative viability ([3]; first compound 0.006325 µM)	relative viability ([3]; first compound 0.02 µM)	relative viability ([3]; first compound 0.06325 µM)	relative viability ([4]; first compound 0.002 µM)	relative viability ([4]; first compound 0.006325 µM)	relative viability ([4]; first compound 0.02 µM)	relative viability ([4]; first compound 0.06325 µM)
LC-2-ad	0.498	0.639	0.579		0.502	0.928	0.925	0.866	0.87	0.455	0.586	0.568	0.452	0.682	0.637	0.705	0.65
LCLC-97TM1	0.396	0.379	0.421	0.464	0.375		0.178	0.23	0.21	0.184	0.208	0.221	0.148		0.817	0.753	0.481
LCLC-103H	0.306	0.276	0.341	0.337	0.361	0.647	0.637	0.674	0.716	0.595	0.654	0.668	0.508	0.732	0.824	0.864	0.802
LK-2	0.243		0.47	0.138	0.108	0.631	0.717	0.827	0.851	0.565	0.541	0.475	0.53	0.304	0.139	0.388	0.305
LOU-NH91	0.693	0.679	0.723	0.682	0.862	0.8	0.747	0.807	0.788	0.495	0.519	0.578	0.535	0.883	0.921	0.949	0.932
LU99A	0.774	0.78	0.904	0.533	0.248	0.539	0.496	0.641	0.56	0.354	0.335	0.315	0.284	0.508	0.419	0.514	0.441
LXF-289	0.485	0.496	0.529	0.497	0.539	0.665	0.746	0.697	0.711	0.772	0.771	0.752	0.549	0.739	0.789	0.73	0.756
NCI-H23		0.724	0.771	0.727	0.841		0.361	0.498	0.225	0.518	0.459	0.484	0.222		0.555	0.626	0.544
NCI-H322M	0.541	0.827	0.837	0.547	0.744	0.55	0.5	0.48	0.536	0.49	0.553	0.559	0.556	0.85	0.925	0.854	0.909
NCI-H358	0.292	0.4	0.327	0.115	0.299	0.142	0.153	0.167	0.14	0.254	0.349	0.332	0.249	0.641	0.643	0.86	0.106
NCI-H441	0.831	0.807	0.787		0.958	0.383	0.393	0.461	0.268	0.539	0.527	0.47	0.381	0.741	0.716	0.741	0.268
NCI-H460	0.379	0.48	0.587	0.0822	0.028	0.081	0.147	0.174	0.14	0.355	0.351	0.413	0.451	0.706	0.727	0.802	0.688
NCI-H520	0.582	0.526	0.532	0.357	0.35	0.735	0.599	0.75	0.741	0.236	0.298	0.255	0.293	0.824	0.695	0.736	0.729
NCI-H522	0.591	0.652	0.645	0.622	0.542	0.625	0.711	0.71	0.75					0.846	0.78	0.933	0.932
NCI-H596	0.834	0.681	0.712	0.667	0.714	0.783	0.784	0.744	0.859		0.387	0.378	0.431	0.554	0.468	0.676	0.551
NCI-H1299										0.653	0.803	0.845	0.516				
NCI-H1563	0.648	0.708	0.656	0.514	0.533					0.633	0.674	0.626	0.75				
NCI-H1648							0.902	0.444	0.651						0.386	0.565	0.301
NCI-H1703										0.26	0.232	0.248	0.116				
NCI-H1792	0.259	0.2	0.244	0.346	0.243	0.498	0.366	0.468	0.599	0.331	0.289	0.318	0.267				
NCI-H2342	0.595	0.629	0.539	0.616	0.688	0.738	0.71	0.829	0.757					0.717	0.724	0.705	0.704
SW 900	0.618	0.685		0.586	0.72		0.922	0.843	0.809						0.465	0.582	0.408
